System: Salmonella (five Salmonella enterica serovars)
Assay: Dog kibble challenge with dried five strain Salmonella cocktail inoculum
Type: cell-based
Description: One ml of each Salmonella culture was separately inoculated into a beaker containing tempered (ambient), sterilized MBM which was then incubated at 37° C. for 48 hours. Inoculated MBM was dispensed (approx. 200 g) into sterile 250 ml centrifuge bottles and centrifuged at 5,000 rpm for 10 minutes. The supernatant was decanted and autoclaved for disposal. The pellets were suspended in 10 ml TSB-20% glycerol. Suspensions (approximately 150-160 g) were transferred to sterilized 250 ml polycarbonate straight side wide mouth jars with lids (Nalgene, Thermo Scientific). Jars containing MBM-Salmonella suspensions were immediately frozen at −70° C. for 1 hour. Frozen MBM-Salmonella suspensions were lyophilized using a FreeZone-1 Liter benchtop freeze dry system (Labconco) (approx. 96 hours, −50° C.). Each lyophilized Salmonella culture was pulverized to a fine powder using a sterile mortar and pestle. Twenty g of each of the five lyophilized Salmonella cultures was combined in a sterile wide mouth glass jar to make the dried Salmonella cocktail inoculum. […] Solidified plates were incubated inverted at 37° C. for 16-18 hours. Visible colonies were counted and colony forming units per gram were calculated (CFU/g). […] Kibble and inoculum were mixed together for five minutes by hand in a plastic zip top bag, and allowed to rest for 1 hour prior to sampling. Coated, un-inoculated kibble was also included in the study and tested for Salmonella (direct plating and FDA BAM), total aerobic bacteria, mold and yeast counts, pH, percent moisture, and water activity. For each analysis time point challenged kibble was sampled in triplicate. Kibbles were stored at ambient temperature.
Challenged kibble samples bags were mixed thoroughly, then 5.00 g (±0.01) was aseptically weighed into a sterile plastic bag and diluted with 45 ml sterile Phosphate Buffer (Butterfield) diluent (BPB) containing (g/l) KH2PO4 34.0, pH adjusted to 7.2 with 1N sodium hydroxide and homogenized using a Stomacher (Seward Stomacher 80) for 1 minute and serially diluted in BPB for plating. The plates are poured with tempered (45° C.) XLD agar. After solidification, plates were inverted and placed in an incubator (37° C.). Colonies were counted and CFU/g was calculated. The counts for each triplicate sample were averaged and expressed as log CFU/g. Those samples of which were below the detection limit of <10 CFU/g were assigned 0 log CFU/g for the purpose of statistical analysis. Analysis of Variance using the LSD separation of means method was performed to analyze the data using StatGraphics software (StatPoint Technologies, Inc. Warrenton, Va.).
Dry dog palatants were formulated with fumaric acid or SBS to deliver 0.5% acid to the surface of the kibble. The effect of each acid on Salmonella challenged on the surface of dog kibble was examined. Dog kibbles were challenged with dried five strain Salmonella cocktail inoculum.
The effect of each acid on Salmonella challenged on the surface of dog kibble was examined. Dog kibbles were challenged with dried five strain Salmonella cocktail inoculum prep.

O=C(O)/C=C/C(=O)O [Fumaric Acid, fumaric acid]
Salmonella (Table 15, 0.50% on dog kibble, day 0): 1.98 ± 0.14^Ca log CFU/g
Salmonella (Table 15, 0.50% on dog kibble, day 1): 1.10 ± 0.10^Cb log CFU/g
Salmonella (Table 15, 0.50% on dog kibble, day 3): 0.77 ± 0.39^Abc log CFU/g
Salmonella (Table 15, 0.50% on dog kibble, day 7): 0.33 ± 0.33^Bcd log CFU/g
Salmonella (Table 15, 0.50% on dog kibble, day 9): 0.33 ± 0.33^Bcd log CFU/g
Salmonella (Table 15, 0.50% on dog kibble, day 14): 0.00 ± 0.00^Bd log CFU/g
Salmonella (Table 15, 0.50% on dog kibble, day 21): 0.00 ± 0.00^Bd log CFU/g
Salmonella (Table 17, total of 0.5% acid on dog kibble, day 0): 1.99 ± 0.22^CDa log CFU/g
Salmonella (Table 17, total of 0.5% acid on dog kibble, day 1): 0.43 ± 0.43^Bb log CFU/g
Salmonella (Table 17, total of 0.5% acid on dog kibble, day 6): 0.00 ± 0.00^Bb log CFU/g
Salmonella (Table 17, total of 0.5% acid on dog kibble, day 14): 0.00 ± 0.00^Bb log CFU/g
Salmonella (Table 17, total of 0.5% acid on dog kibble, day 21): 0.00 ± 0.00^Bb log CFU/g
Salmonella counts on challenged dog kibble vs control palatant (in words) (dog kibble challenge): significantly lower Salmonella counts than the control and SBS formula
